Assay results: the NIST ThermoML archive (doi:10.1016/j.jct.2016.11.002)
Where “and” joins values, the source holds several entries; their conditions need not be identical. Equal values may be shown once. Numbers after ± are expanded uncertainties.

Legend:
[1] = 100 kPa, Liquid; for speed of sound: Frequency=3 MHz, Single path-length method; for mass density: Vibrating tube method
[2] = refractive index (Na D-line) (dimensionless); settings: 100 kPa, Liquid, Standard Abbe refractometry
[3] = xn = mol fraction of the nth substance listed; settings: 100 kPa, Liquid, x1 = 1; for speed of sound: Frequency=3 MHz, Single path-length method; for mass density: Vibrating tube method
[4] = refractive index (Na D-line) (dimensionless); xn = mol fraction of the nth substance listed; settings: 100 kPa, Liquid, Standard Abbe refractometry, x1 = 1

Compound | speed of sound ([1]; 298.15 K) | mass density ([1]; 298.15 K) | speed of sound ([3]; 298.15 K) | mass density ([3]; 298.15 K) | speed of sound ([3]; 303.15 K) | mass density ([3]; 303.15 K) | speed of sound ([3]; 308.15 K) | mass density ([3]; 308.15 K) | speed of sound ([3]; 313.15 K) | mass density ([3]; 313.15 K) | speed of sound ([3]; 318.15 K) | mass density ([3]; 318.15 K) | speed of sound ([3]; 323.15 K) | mass density ([3]; 323.15 K) | refractive index ([4]; 298.15 K) | refractive index ([4]; 303.15 K) | refractive index ([4]; 308.15 K) | refractive index ([4]; 313.15 K) | refractive index ([4]; 318.15 K) | refractive index ([4]; 323.15 K) | also measured
CCOCCO [2-ethoxyethan-1-ol] | 1302.8 ± 1.3 m/s | 925.54 ± 1 kg/m3 |  |  |  |  |  |  |  |  |  |  |  |  |  |  |  |  |  |  | speed of sound ([1]; 303.15 K): 1285 ± 1.3 m/s; mass density ([1]; 303.15 K): 920.99 ± 1 kg/m3; speed of sound ([1]; 308.15 K): 1267.3 ± 1.3 m/s; mass density ([1]; 308.15 K): 916.41 ± 1 kg/m3; speed of sound ([1]; 313.15 K): 1249.6 ± 1.3 m/s; mass density ([1]; 313.15 K): 911.8 ± 1 kg/m3; speed of sound ([1]; 318.15 K): 1232 ± 1.3 m/s and 1231.5 ± 1.3 m/s; mass density ([1]; 318.15 K): 907.15 ± 1 kg/m3; speed of sound ([1]; 323.15 K): 1214.3 ± 1.3 m/s; mass density ([1]; 323.15 K): 902.46 ± 1 kg/m3; refractive index ([2]; 298.15 K): 1.4055 ± 0.0016; refractive index ([2]; 303.15 K): 1.4042 ± 0.0016; refractive index ([2]; 308.15 K): 1.4028 ± 0.0016; refractive index ([2]; 313.15 K): 1.4016 ± 0.0016; refractive index ([2]; 318.15 K): 1.4001 ± 0.0016; refractive index ([2]; 323.15 K): 1.3988 ± 0.0016
COCCO [2-methoxyethan-1-ol] | 1342.1 ± 1.3 m/s | 960.32 ± 1 kg/m3 |  |  |  |  |  |  |  |  |  |  |  |  |  |  |  |  |  |  | speed of sound ([1]; 303.15 K): 1324.7 ± 1.3 m/s; mass density ([1]; 303.15 K): 955.71 ± 1 kg/m3; speed of sound ([1]; 308.15 K): 1307.4 ± 1.3 m/s; mass density ([1]; 308.15 K): 951.08 ± 1 kg/m3; speed of sound ([1]; 313.15 K): 1290 ± 1.3 m/s; mass density ([1]; 313.15 K): 946.42 ± 1 kg/m3; speed of sound ([1]; 318.15 K): 1272.7 ± 1.3 m/s; mass density ([1]; 318.15 K): 941.72 ± 1 kg/m3; speed of sound ([1]; 323.15 K): 1255.4 ± 1.3 m/s; mass density ([1]; 323.15 K): 936.89 ± 1 kg/m3; refractive index ([2]; 298.15 K): 1.4001 ± 0.0016; refractive index ([2]; 303.15 K): 1.3981 ± 0.0016; refractive index ([2]; 308.15 K): 1.3961 ± 0.0016; refractive index ([2]; 313.15 K): 1.3943 ± 0.0016; refractive index ([2]; 318.15 K): 1.3922 ± 0.0016; refractive index ([2]; 323.15 K): 1.3902 ± 0.0016
CCOC(=O)OCC [diethyl carbonate] + CCCOCCO |  |  | 1177.5 ± 1.4 m/s | 969.1 ± 1 kg/m3 | 1156.9 ± 1.4 m/s | 963.47 ± 1 kg/m3 | 1136.6 ± 1.4 m/s | 957.81 ± 1 kg/m3 | 1116.5 ± 1.4 m/s | 952.13 ± 1 kg/m3 | 1096.5 ± 1.4 m/s | 946.43 ± 1 kg/m3 | 1076.7 ± 1.4 m/s | 940.69 ± 1 kg/m3 | 1.3825 ± 0.0016 | 1.3802 ± 0.0016 | 1.3779 ± 0.0016 | 1.3756 ± 0.0016 | 1.3733 ± 0.0016 | 1.371 ± 0.0016 | 
CCOC(=O)OCC [diethyl carbonate] + CCOCCO |  |  | 1177.5 ± 1.4 m/s | 969.1 ± 1 kg/m3 | 1156.9 ± 1.4 m/s | 963.47 ± 1 kg/m3 | 1136.6 ± 1.4 m/s | 957.81 ± 1 kg/m3 | 1116.5 ± 1.4 m/s | 952.13 ± 1 kg/m3 | 1096.5 ± 1.4 m/s | 946.43 ± 1 kg/m3 | 1076.7 ± 1.4 m/s | 940.69 ± 1 kg/m3 | 1.3825 ± 0.0016 | 1.3802 ± 0.0016 | 1.3779 ± 0.0016 | 1.3756 ± 0.0016 | 1.3733 ± 0.0016 | 1.371 ± 0.0016 | 
CCOC(=O)OCC [diethyl carbonate] + COCCO |  |  | 1177.5 ± 1.4 m/s | 969.1 ± 1 kg/m3 | 1156.9 ± 1.4 m/s | 963.47 ± 1 kg/m3 | 1136.6 ± 1.4 m/s | 957.81 ± 1 kg/m3 | 1116.5 ± 1.4 m/s | 952.13 ± 1 kg/m3 | 1096.5 ± 1.4 m/s | 946.43 ± 1 kg/m3 | 1076.7 ± 1.4 m/s | 940.69 ± 1 kg/m3 | 1.3825 ± 0.0016 | 1.3802 ± 0.0016 | 1.3779 ± 0.0016 | 1.3756 ± 0.0016 | 1.3733 ± 0.0016 | 1.371 ± 0.0016 | 
